Here are results for one compound from patent EP4778526A1, “ANTI-AGING AGENT, ORAL COMPOSITION FOR ANTI-AGING, AND USE OF COMPOUND” (Institute of Rheological Function of Food Co., Ltd., priority 2023, dated 2025).

For assay [1], the system named is NAMPT. The experiment in a line: Test Example 1: real-time PCR of NAMPT mRNA expression in HHORSCs cultured with KIT13. The settings on record: Human hair outer root sheath cells (HHORSCs), 5 µg/ml, 7 hours; mRNA normalized by 18S rRNA; vs culture medium not containing KIT13; FIG. 1. The assay is classed as cell-based. Here is the method: (§1) Human hair outer root sheath cells (HHORSCs; manufactured by ScienCell Research Laboratories, #2420) were cultured for 7 hours in a culture medium containing 5 µg/ml of KIT13. As a culture medium for HHORSCs, a mesenchymal stem cell medium (manufactured by ScienCell Research Laboratories, #7501) was used. As a negative control, HHORSCs were cultured in a culture medium not containing KIT13.
(§2) RNA was extracted from cells using TRIzol (manufactured by Thermo Fisher Scientific). Subsequently, a first strand cDNA was prepared using PrimeScript RT Master Mix (manufactured by Takara), and mRNA expression of target genes and endogenous control genes was detected by real-time PCR using TB Green Premix Ex Taq II (manufactured by Takara) and T100 (trademark) Thermal Cycler (manufactured by BIO-RAD). The target genes were NAMPT, SIRT1, and NRF1, UQCRC1, and ATP5A1 whose expression is induced by activation of SIRT1 (Yuanyuan Huang, and ten others, "Resveratrol-induced Sirt1 phosphorylation by LKB1 mediates mitochondrial metabolism", J. Biol. Chem., 2021, 297(2), 100929). As the endogenous control gene, 18S ribosomal RNA (18S rRNA) was used, and measurement values of each gene were normalized by measurement values of 18S rRNA.
In general terms: Quantitative PCR measures a nucleic acid by following its amplification.

Assay [2] concerns SIRT1. The experiment in a line: Test Example 1: real-time PCR of SIRT1 mRNA expression in HHORSCs cultured with KIT13. In kind it is cell-based. The settings on record: Human hair outer root sheath cells (HHORSCs), 5 µg/ml, 7 hours; mRNA normalized by 18S rRNA; vs culture medium not containing KIT13; FIG. 2. The protocol: as §1, §2
In assay [3] the test system is NRF1. The experiment in a line: Test Example 1: real-time PCR of NRF1 mRNA expression in HHORSCs cultured with KIT13. To be noted: Human hair outer root sheath cells (HHORSCs), 5 µg/ml, 7 hours; mRNA normalized by 18S rRNA; vs culture medium not containing KIT13; FIG. 3. The assay is classed as cell-based. Here is the method: as §1, §2
The test system of assay [4] is UQCRC1. Put plainly: Test Example 1: real-time PCR of UQCRC1 mRNA expression in HHORSCs cultured with KIT13. The assay is classed as cell-based. The settings on record: Human hair outer root sheath cells (HHORSCs), 5 µg/ml, 7 hours; mRNA normalized by 18S rRNA; vs culture medium not containing KIT13; FIG. 4. The protocol:
as §1, §2

The subject of assay [5] is ATP5A1. The experiment in a line: Test Example 1: real-time PCR of ATP5A1 mRNA expression in HHORSCs cultured with KIT13. The assay is classed as cell-based. To be noted: Human hair outer root sheath cells (HHORSCs), 5 µg/ml, 7 hours; mRNA normalized by 18S rRNA; vs culture medium not containing KIT13; FIG. 5. Here is the method: as §1, §2
Assay [6] deals with NAMPT. Put plainly: Test Example 2: real-time PCR of NAMPT mRNA expression in femoral muscle of mice given KIT13. In kind it is in vivo. To be noted: four-week-old male c57BL6J mice, by drinking water, 20 µg/kg for four weeks; femoral muscles; mRNA normalized by β-actin; FIG. 6. The protocol: (§3) KIT13 was administered to four-week-old male c57BL6J mice (five mice per group, n = 5) by drinking water at a dose of 20 µg/kg for four weeks. Femoral muscles were collected from each mouse and analyzed as follows.
(§4) Femoral muscles were crushed by homogenization using 18G to 25G injection needles in Buffer A (0.25 M sucrose, 10 mM Hepes-KOH (pH 7.5), 1 mM EDTA, protease inhibitor cocktail), and RNA was extracted from the cells based on equal amounts of protein using TRIzol (manufactured by Thermo Fisher Scientific). Subsequently, a first strand cDNA was prepared using PrimeScript RT Master Mix (manufactured by Takara), and mRNA expression of target genes and endogenous control genes was detected by real-time PCR using TB Green Premix Ex Taq II (manufactured by Takara) and T100 (trademark) Thermal Cycler (manufactured by BIO-RAD). The target genes were NAMPT and SIRT1, and the endogenous control gene was β-actin. Measurement values of each gene were normalized by measurement values of β-actin.

The subject of assay [7] is SIRT1. Put plainly: Test Example 2: real-time PCR of SIRT1 mRNA expression in femoral muscle of mice given KIT13. The assay is classed as in vivo. To be noted: four-week-old male c57BL6J mice, by drinking water, 20 µg/kg for four weeks; femoral muscles; mRNA normalized by β-actin; FIG. 7. Here is the method: as §3, §4

With `CCCCC/C=C\C/C=C\C/C=C\C/C=C\CCCC(=O)O[C@H](COCCCCCCCCCCCCCCCCCC)COP(=O)(O)OCCN` [KIT13], the “relative expression level of NAMPT” value in assay [1] was “significantly increased”. Also, the “relative expression level of SIRT1” value in assay [2] is “significantly increased”. Further, in assay [3], the “relative expression level of NRF1” value is recorded as “increased”. For the same compound, the “relative expression level of UQCRC1” value in assay [4] is on record as “increased”. Further, in assay [5], the “relative expression level of ATP5A1” value is reported as “increased”. Besides, the “relative expression level of NAMPT in muscle” value in assay [6] is recorded as “significantly increased”. The “relative expression level of SIRT1 in muscle” value in assay [7] was “significantly increased”.
